Columns and labels:
[1] = test system: Hamamotoa (Sporobolomyces) singularis β-hexosyl-transferase (BHT, EC 3.2.1.21), native; conditions: lactose concentrations above 20%; cited from earlier work
[2] = biological target: Hamamotoa (Sporobolomyces) singularis β-hexosyl-transferase (BHT), truncated variant rBHT(54-594)-HIS (residues 1-53 removed); MFα-rBht(54-594)-HIS SEQ ID NO: 50 (Hamamotoa singularis, UniProt Q564N5); assay: Kinetics of ONP-Glu cleavage by purified soluble rBHT(54-594)-HIS; assay type: biochemical; conditions: 0.08-10.4 mM ONP-Glu, 20, 30, 42 and 55° C.
Source text: (§1) K. pastoris Transformation and Expression. […] Expression and purification have been described previously.
(§2) Kinetic parameters of secreted soluble rBHT variants.

[3] = biological target: Hamamotoa (Sporobolomyces) singularis β-hexosyl-transferase (BHT), truncated variant rBHT(32-594)-HIS (residues 1-31 removed); MFα-rBht(32-594)-HIS SEQ ID NO: 48 (Hamamotoa singularis, UniProt Q564N5); assay: Kinetics of ONP-Glu cleavage by purified soluble rBHT(32-594)-HIS; assay type: biochemical; conditions: 0.08-10.4 mM ONP-Glu, 20, 30, 42 and 55° C.
Source text: as §1, §2

[4] = biological target: T1, Hamamotoa (Sporobolomyces) singularis β-hexosyl-transferase (BHT), truncated variant rBHT(23-594)-HIS (residues 1-22 removed); MFα-rBht(23-594)-HIS SEQ ID NO: 38 (Hamamotoa singularis, UniProt Q564N5); assay: Kinetics of ONP-Glu cleavage by purified soluble rBHT(23-594)-HIS; assay type: biochemical; conditions: 0.08-10.4 mM ONP-Glu, 20, 30, 42 and 55° C.
T1 construct: codon-optimized gene
Source text: as §1, §2

[5] = biological target: T2, Hamamotoa (Sporobolomyces) singularis β-hexosyl-transferase (BHT), truncated variant rBHT(57-594)-HIS (residues 1-56 removed); MFα-rBht(57-594)-HIS SEQ ID NO: 52 (Hamamotoa singularis, UniProt Q564N5); conditions: 0.08-10.4 mM ONP-Glu, 20, 30, 42 and 55° C.
T2 sequence (Q564N5 57-594): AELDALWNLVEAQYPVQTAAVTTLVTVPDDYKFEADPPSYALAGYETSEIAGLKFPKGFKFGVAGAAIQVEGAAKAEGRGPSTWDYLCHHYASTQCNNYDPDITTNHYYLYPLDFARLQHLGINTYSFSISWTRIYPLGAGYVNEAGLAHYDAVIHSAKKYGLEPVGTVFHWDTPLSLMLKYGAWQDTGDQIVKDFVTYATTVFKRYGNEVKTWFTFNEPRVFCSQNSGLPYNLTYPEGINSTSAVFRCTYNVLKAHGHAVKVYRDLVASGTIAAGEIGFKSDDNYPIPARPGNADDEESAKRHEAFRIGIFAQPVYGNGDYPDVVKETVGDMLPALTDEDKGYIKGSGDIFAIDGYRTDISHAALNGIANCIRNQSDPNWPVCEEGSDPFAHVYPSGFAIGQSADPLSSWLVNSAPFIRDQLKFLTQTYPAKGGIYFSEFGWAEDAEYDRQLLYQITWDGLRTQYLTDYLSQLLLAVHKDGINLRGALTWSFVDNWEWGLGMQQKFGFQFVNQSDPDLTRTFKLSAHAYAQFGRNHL

OC[C@H]1O[C@@H](O[C@H]2[C@H](O)[C@@H](O)C(O)O[C@@H]2CO)[C@H](O)[C@@H](O)[C@H]1O (stereo partly drawn) [lactose]
inhibition by lactose [1]: does not appear to be inhibited by lactose concentrations above 20%

O=[N+]([O-])c1ccccc1O[C@@H]1O[C@H](CO)[C@@H](O)[C@H](O)[C@H]1O [ONP-Glu]
Km (affinity for the substrate ONP-Glu) [2]: retain similar affinity for the substrate ONP-Glu (Km) | kcat (turnover activity, ONP-Glu) [2]: retain similar affinity for the substrate ONP-Glu (Km) and turnover activity (kcat) | Km (affinity for the substrate ONP-Glu) [3]: retain similar affinity for the substrate ONP-Glu (Km) | kcat (turnover activity, ONP-Glu) [3]: retain similar affinity for the substrate ONP-Glu (Km) and turnover activity (kcat) | Km (affinity for the substrate ONP-Glu) [4]: retain similar affinity for the substrate ONP-Glu (Km) | kcat (turnover activity, ONP-Glu) [4]: retain similar affinity for the substrate ONP-Glu (Km) and turnover activity (kcat) | Km (affinity for the substrate ONP-Glu) [5]: retain similar affinity for the substrate ONP-Glu (Km) | kcat (turnover activity, ONP-Glu) [5]: retain similar affinity for the substrate ONP-Glu (Km) and turnover activity (kcat)
